Test results taken from PubChem BioAssay AID1259407 (Chemical Carcinogenesis Research Information System (CCRIS), 2018).
Activity calls are given as the source filed them. How the calls were made is not given here.

System: CCRIS mutagenicity, Ames/micronucleus/aberration tests
Experiment: CCRIS mutagenicity studies
Settings: Method: PREINCUBATION
[1] = Test System: AMES SALMONELLA TYPHIMURIUM, Strain/Indicator: TA98, Metabolic Activation: NONE
[2] = Test System: AMES SALMONELLA TYPHIMURIUM, Strain/Indicator: TA100, Metabolic Activation: NONE
[3] = Test System: AMES SALMONELLA TYPHIMURIUM, Strain/Indicator: TA1535, Metabolic Activation: NONE
[4] = Test System: AMES SALMONELLA TYPHIMURIUM, Strain/Indicator: TA1537, Metabolic Activation: NONE

Measured: mutagenic call

O=C(S)c1ccccc1
inactive: [1] inactive; negative | Test System: AMES SALMONELLA TYPHIMURIUM, Strain/Indicator: TA98, Metabolic Activation: RAT LIVER S-9, PHENOBARBITAL AND BETA-NAPHTHOFLAVONE inactive; negative | [2] inactive; negative | Test System: AMES SALMONELLA TYPHIMURIUM, Strain/Indicator: TA100, Metabolic Activation: RAT LIVER S-9, PHENOBARBITAL AND BETA-NAPHTHOFLAVONE inactive; negative | Test System: AMES SALMONELLA TYPHIMURIUM, Strain/Indicator: TA102, Metabolic Activation: NONE inactive; negative | Test System: AMES SALMONELLA TYPHIMURIUM, Strain/Indicator: TA102, Metabolic Activation: RAT LIVER S-9, PHENOBARBITAL AND BETA-NAPHTHOFLAVONE inactive; negative | Test System: AMES SALMONELLA TYPHIMURIUM, Strain/Indicator: TA104, Metabolic Activation: NONE inactive; negative | Test System: AMES SALMONELLA TYPHIMURIUM, Strain/Indicator: TA104, Metabolic Activation: RAT LIVER S-9, PHENOBARBITAL AND BETA-NAPHTHOFLAVONE inactive; negative | [3] inactive; negative | Test System: AMES SALMONELLA TYPHIMURIUM, Strain/Indicator: TA1535, Metabolic Activation: RAT LIVER S-9, PHENOBARBITAL AND BETA-NAPHTHOFLAVONE inactive; negative | [4] inactive; negative | Test System: AMES SALMONELLA TYPHIMURIUM, Strain/Indicator: TA1537, Metabolic Activation: RAT LIVER S-9, PHENOBARBITAL AND BETA-NAPHTHOFLAVONE inactive; negative | Test System: E.COLI, Strain/Indicator: WP2UVRA/PKM101, Metabolic Activation: NONE inactive; negative | Test System: E.COLI, Strain/Indicator: WP2UVRA/PKM101, Metabolic Activation: RAT LIVER S-9, PHENOBARBITAL AND BETA-NAPHTHOFLAVONE inactive; negative | Test System: E.COLI, Strain/Indicator: WP2UVRA, Metabolic Activation: NONE inactive; negative | Test System: E.COLI, Strain/Indicator: WP2UVRA, Metabolic Activation: RAT LIVER S-9, PHENOBARBITAL AND BETA-NAPHTHOFLAVONE inactive; negative

Oc1ccc(Cl)cc1Cc1ccccc1
inactive: Test System: AMES SALMONELLA TYPHIMURIUM, Strain/Indicator: TA98, Metabolic Activation: HAMSTER, LIVER, S-9, AROCLOR 1254 (10%) inactive; negative | [1] inactive; negative | Test System: AMES SALMONELLA TYPHIMURIUM, Strain/Indicator: TA98, Metabolic Activation: RAT, LIVER, S-9, AROCLOR 1254 (10%) inactive; negative | Test System: AMES SALMONELLA TYPHIMURIUM, Strain/Indicator: TA100, Metabolic Activation: HAMSTER, LIVER, S-9, AROCLOR 1254 (10%) inactive; negative | [2] inactive; negative | Test System: AMES SALMONELLA TYPHIMURIUM, Strain/Indicator: TA100, Metabolic Activation: RAT, LIVER, S-9, AROCLOR 1254 (10%) inactive; negative | Test System: AMES SALMONELLA TYPHIMURIUM, Strain/Indicator: TA1535, Metabolic Activation: HAMSTER, LIVER, S-9, AROCLOR 1254 (10%) inactive; negative | [3] inactive; negative | Test System: AMES SALMONELLA TYPHIMURIUM, Strain/Indicator: TA1535, Metabolic Activation: RAT, LIVER, S-9, AROCLOR 1254 (10%) inactive; negative | Test System: AMES SALMONELLA TYPHIMURIUM, Strain/Indicator: TA1537, Metabolic Activation: HAMSTER, LIVER, S-9, AROCLOR 1254 (10%) inactive; negative | [4] inactive; negative | Test System: AMES SALMONELLA TYPHIMURIUM, Strain/Indicator: TA1537, Metabolic Activation: RAT, LIVER, S-9, AROCLOR 1254 (10%) inactive; negative
